{"source": "patent US7229646B2", "about": "“Methods and compositions for modulating immune response and for the treatment of inflammatory disease” (Foodscience Corporation, priority 1999, dated 2007)", "key": {"CD19^+ B cell": {"test_system": "CD19^+ B cell", "assay": "Spleen lymphocyte populations by flow cytometry, CD19+ B cells", "format": "in vivo, MRI-lpr mice", "conditions": "flow cytometry after twelve weeks (FIG. 3)", "from_the_text": "(§1) MRI-lpr mice were used to study the effects of a combination of DMG and PCE on components of the immune system and on the progression of the SLE disease. Forty MRI-lpr mice were divided into four groups of ten mice each: a control group, a PCE treated group, a DMG treated group, and a PCE-DMG treated group. The control group was given standard mouse chow and water. […] The PCE group was given a PCE-mouse chow mix and water. The PCE-DMG combination group was given a PCE-mouse chow mix and DMG water. […] The mice were given food and water ad libitum. It is estimated that the mice, with a size range of 30–50 grams, consumed about 1–3 mg/day of DMG and 2–6 mg/day of PCE. The mice were weighed weekly and 100 ul of blood was collected via orbital bleed on a weekly basis. The collected blood was centrifuged and the serum was recovered and stored at −20° C. for analysis at the end of the twelve week experiment. After twelve weeks, the mice were sacrificed and the spleens, kidneys, and livers were harvested. […] The spleens were processed and the cells recovered were quantified by flow cytometry using fluorescent anti-CD4, anti-CD8 and anti-CD19 antibodies (Pharmingen, San Diego, Calif.). Cytokine levels in the serum and anti-single stranded and double stranded DNA antibody levels in the serum were determined using an enzyme linked immunosorbent assay (ELISA)."}, "[1]": {"test_system": "humoral and cellular immunity", "conditions": "Graber et al., 1981; cited from earlier work"}, "anti-ssDNA antibody": {"test_system": "anti-ssDNA antibody", "assay": "Serum anti-ssDNA antibody ELISA", "format": "in vivo, MRI-lpr mice", "conditions": "time course to 11th week; versus control (FIG. 5)", "from_the_text": "as §1"}, "CD8^+ T cells": {"test_system": "CD8^+ T cells", "assay": "Spleen lymphocyte populations by flow cytometry, CD8+ T cells", "format": "in vivo, MRI-lpr mice", "conditions": "flow cytometry after twelve weeks (FIG. 3)", "from_the_text": "as §1"}, "il-6": {"test_system": "il-6", "assay": "Serum cytokine ELISA, il-6", "format": "in vivo, MRI-lpr mice", "conditions": "ELISA (FIG. 2)", "from_the_text": "as §1"}, "[2]": {"test_system": "B-cells, T cells and macrophages", "conditions": "in humans; cited from earlier work"}, "lactic acid levels": {"test_system": "lactic acid levels", "conditions": "animals under extreme stress; cited from earlier work"}, "il-10": {"test_system": "il-10", "assay": "Serum cytokine ELISA, il-10", "format": "in vivo, MRI-lpr mice", "conditions": "ELISA (FIG. 2)", "from_the_text": "as §1"}}}
{"smiles": "CN(C)CC(=O)O", "note": "[DMG, N,N-dimethylglycine]", "values": [{"measurement": "CD19^+ B cell percentages", "setting": "CD19^+ B cell", "value": "No effect"}, {"measurement": "effect on humoral and cellular immunity", "setting": "[1]", "value": "stimulation of both humoral and cellular immunity"}, {"measurement": "anti-ssDNA antibody levels in the serum", "setting": "anti-ssDNA antibody", "value": "appeared to be leveling out"}, {"measurement": "CD8^+ T cells", "setting": "CD8^+ T cells", "value": "No effect"}, {"measurement": "levels of serum il-6", "setting": "il-6", "value": "significantly lower levels of il-6 than control animals"}, {"measurement": "B-cell antibody responses", "setting": "[2]", "value": "much higher antibody responses"}, {"measurement": "activity of T cells and macrophages", "setting": "[2]", "value": "enhanced"}, {"measurement": "lactic acid levels", "setting": "lactic acid levels", "value": "decreased lactic acid levels"}, {"measurement": "oxygen utilization", "setting": "lactic acid levels", "value": "increased oxygen utilization"}, {"measurement": "levels of serum il-10", "setting": "il-10", "value": "higher levels of IL-10 than in controls"}]}
